Where two headings read alike, the source gives them in different places.

Data on 24 compounds can be found in patent US20090028925A1, “Novel Phosphinic Acid-Containing Thyromimetics” (priority 2005, published 2009).

The target of test [1] is T1, human thyroid hormone receptors TRα1 (Homo sapiens, UniProt P10827).
T1 construct: made in house; host or cells: Sf9 insect cells (baculovirus)
T1 sequence (P10827 1-410 isoform P10827-2): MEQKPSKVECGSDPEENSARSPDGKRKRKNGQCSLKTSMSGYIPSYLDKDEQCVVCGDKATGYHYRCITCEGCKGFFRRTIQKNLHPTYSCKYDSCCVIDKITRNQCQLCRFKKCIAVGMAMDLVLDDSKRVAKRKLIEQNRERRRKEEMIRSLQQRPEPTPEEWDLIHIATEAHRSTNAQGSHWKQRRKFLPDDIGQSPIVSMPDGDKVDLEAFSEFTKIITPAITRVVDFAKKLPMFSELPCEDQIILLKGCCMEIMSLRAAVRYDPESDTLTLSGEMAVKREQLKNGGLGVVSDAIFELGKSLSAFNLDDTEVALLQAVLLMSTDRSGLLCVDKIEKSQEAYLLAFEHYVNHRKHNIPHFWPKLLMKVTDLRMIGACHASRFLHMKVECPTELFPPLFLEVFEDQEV
T1 sequence (P19793 1-462 partner): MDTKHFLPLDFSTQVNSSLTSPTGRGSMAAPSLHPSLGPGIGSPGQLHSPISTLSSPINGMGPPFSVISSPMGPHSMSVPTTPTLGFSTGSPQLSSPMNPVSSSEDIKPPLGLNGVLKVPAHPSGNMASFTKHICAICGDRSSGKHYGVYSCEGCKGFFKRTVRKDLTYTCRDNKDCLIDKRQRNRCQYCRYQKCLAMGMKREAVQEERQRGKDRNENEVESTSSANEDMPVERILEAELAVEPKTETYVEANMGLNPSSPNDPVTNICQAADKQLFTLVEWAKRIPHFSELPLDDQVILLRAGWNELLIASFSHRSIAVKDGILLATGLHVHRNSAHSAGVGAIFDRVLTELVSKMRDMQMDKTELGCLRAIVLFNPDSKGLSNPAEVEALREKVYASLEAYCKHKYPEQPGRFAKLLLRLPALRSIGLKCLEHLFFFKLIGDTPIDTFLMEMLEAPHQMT
The test can be described thus: Receptor binding to TRα1 (gel filtration and scintillation proximity assay, labeled T3). To be noted: read-out: Ki TRα. As for the experimental part: (§1) Methods: Baculoviruses expressing TRα1, TRβ1 and RXRα were generated using cDNA and other reagents from Invitrogen (Carlsbad, Calif.). To produce TR/RXR heterodimer proteins, the sf9 insect cells were first grown to a density of 1-5×10^5 cells/mL. […] and RXRα baculovirus stocks were added to the cell culture with a ratio of 1 to 1 (multiplicity of infection=10). The cells were harvested three days after the infection.
(§2) Binding of compounds to either the TRα1 or TRβ1 were also performed by means of scintillation proximity assays (SPA). The SPA assay, a common method used for the quantitation of receptor-ligand equilibria, makes use of special beads coated with a scintillant and a capture molecule, copper, which binds to the histidine-tagged α or β receptor.
On the technique in general: SEC sorts molecules by how far they enter the pores of the column.

The target in test [2] is T2, human thyroid hormone receptors TRβ1 (Homo sapiens, UniProt P10828).
T2 construct: made in house; host or cells: Sf9 insect cells (baculovirus)
T2 sequence (P10828 1-461): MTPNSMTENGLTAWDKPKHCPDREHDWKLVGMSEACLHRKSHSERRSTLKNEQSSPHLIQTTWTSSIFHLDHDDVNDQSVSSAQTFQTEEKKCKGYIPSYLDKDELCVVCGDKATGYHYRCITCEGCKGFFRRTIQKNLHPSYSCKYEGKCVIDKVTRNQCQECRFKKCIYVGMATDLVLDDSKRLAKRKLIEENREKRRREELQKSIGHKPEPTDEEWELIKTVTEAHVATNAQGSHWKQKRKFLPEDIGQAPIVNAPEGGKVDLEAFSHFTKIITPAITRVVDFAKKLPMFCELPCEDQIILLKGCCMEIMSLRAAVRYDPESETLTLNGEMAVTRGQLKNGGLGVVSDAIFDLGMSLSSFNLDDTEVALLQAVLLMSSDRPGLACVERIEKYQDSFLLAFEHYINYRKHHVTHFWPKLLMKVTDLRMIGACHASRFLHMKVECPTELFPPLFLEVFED
T2 sequence (P19793 1-462 partner): T1 sequence (P19793 1-462 partner)
The test can be described thus: Receptor binding to TRβ1 (gel filtration and scintillation proximity assay, labeled T3). To be noted: read-out: Ki TRβ. Here is the method:
as §1, §2

Usually Ki stands for a measure of affinity in units of concentration, obtained from inhibition or displacement. On to `O=P(O)(O)Cc1cc(Cl)c(Oc2ccc(O)c(S(=O)(=O)N[C@@H]3C[C@H]4CC[C@@H]3C4)c2)c(Cl)c1` (relative stereo) [Compound 10, 3,5-dichloro-4-[4′-hydroxy-3′-(N-exo-2-norbornylsulfonamido)phenoxy]benzylphosphonic acid], for which the inhibitory constant (Ki) in test [1] (SPA data) and in test [2] (SPA data) was > 2000 nM in each case.
For `Cc1cc(NC(=O)P(=O)(O)O)cc(C)c1Oc1ccc(O)c(C(C)C)c1` [Compound 1, N-[3,5-dimethyl-4-(3′-iso-propyl-4′-hydroxyphenoxy)]carbamoylphosphonic acid], the Ki in test [1] is 285 nM; in test [2] it was 36.1 nM.
For `NC(Cc1cc(I)c(Oc2ccc(O)c(I)c2)c(I)c1)P(=O)(O)O` (stereo not drawn) [Compound 2, 1-amino-2-[3,5-diiodo-4-(4′-hydroxy-3′-iodophenoxy)phenyl]ethylphosphonic acid], the Ki amounted to 1420 nM in test [1] and 271 nM in test [2].
Turning to `O=P(O)(O)CCc1cc(I)c(Oc2ccc(O)c(I)c2)c(I)c1` [Compound 3, 2-[3,5-diiodo-4-(4′-hydroxy-3′-iodophenoxy)phenyl]ethylphosphonic acid], the Ki in test [1] (SPA data) is 46 nM; in test [2] (SPA data) it was 5.42 nM.
For `CC(C)c1cc(Oc2c(I)cc(CCP(=O)(O)O)cc2I)ccc1O` [Compound 4, 2-[3,5-diiodo-4-(4′-hydroxy-3′-iso-propylphenoxy)phenyl]ethylphosphonic acid], in that order: 14.1 nM and 0.99 nM.
Regarding `CC(C)c1cc(Oc2c(I)cc(CP(=O)(O)O)cc2I)ccc1O` [Compound 5, 3,5-diiodo-4-(4′-hydroxy-3′-iso-propylphenoxy)benzylphosphonic acid], the Ki in test [1] is 1.84 nM; in test [2], 0.84 nM.
On to `COc1cc(OCP(=O)(O)O)cc(OC)c1Cc1ccc(O)c(C(C)C)c1` [Compound 7-2, [3,5-dimethoxy-4-(4′-hydroxy-3′-iso-propylbenzyl)phenoxy]methylphosphonic acid], for which the values for the Ki in test [1] (SPA data) and in test [2] were > 2000 nM and 146 nM, respectively.
In the case of `COc1ccc(Cc2c(C)cc(OCP(=O)(O)O)cc2C)cc1C(C)C` [Compound 7-4, [3,5-dimethyl-4-(3′-iso-propyl-4′-methoxybenzyl)phenoxy]methylphosphonic acid], the Ki in test [1] (SPA data) and in test [2] (SPA data) was > 2000 nM in each case.
As for `CC(C)c1cc(Cc2c(Cl)cc(OCP(=O)(O)O)cc2Cl)ccc1O` [Compound 7-5, [3,5-dichloro-4-(4′-hydroxy-3′-iso-propylbenzyl)phenoxy]methylphosphonic acid], the Ki in test [1] (SPA data) was 67 nM; in test [2] (SPA data) it was 9.5 nM.
Consider `Cc1cc(Cc2c(C)cc(OCP(=O)(O)O)cc2C)ccc1O` [Compound 7-7, [3,5-dimethyl-4-[4′-hydroxy-3′-methylbenzyl]phenoxy]methylphosphonic acid], for which the Ki in test [1] (SPA data) turned out to be 898 nM; in test [2] (SPA data), 90 nM.
For the compound `CC(=O)Nc1ccc(Cc2c(C)cc(OCP(=O)(O)O)cc2C)cc1C(C)C` [Compound 7-12, [4-(4′-acetylamino-3′-iso-propylbenzyl)-3,5-dimethylphenoxy]methylphosphonic acid], the figures for the Ki in test [1] (SPA data) and in test [2] (SPA data) were > 2000 nM and 61 nM, respectively.
For `O=P(O)(O)Cc1cc(Cl)c(Oc2ccc(O)c(S(=O)(=O)N3CCCCC3)c2)c(Cl)c1` [Compound 9, 3,5-dichloro-4-[4′-hydroxy-3′-(N-piperidinylsulfonamido)phenoxy]benzylphosphonic acid], the Ki in test [1] (SPA data) turned out to be 350 nM; in test [2] (SPA data) it was 204 nM.
Take `Cc1cc(OC[P@]2(=O)OCC[C@@H](c3cccc(Cl)c3)O2)cc(C)c1Cc1ccc(O)c(C(C)C)c1` [Compound 13-1-trans, (S)-2-[(3,5-dimethyl-4-(4′-hydroxy-3′-iso-propylbenzyl)phenoxy)methyl]-4-(3-chlorophenyl)-2-oxo-2λ^5-[1,3,2]-dioxaphosphonane]: the values for the Ki in test [1] (SPA data) and in test [2] (SPA data) were 1740 nM and 1320 nM, respectively.
For `Cc1cc(OC[P@]2(=O)OCC[C@@H](c3cccc(Br)c3)O2)cc(C)c1Cc1ccc(O)c(C(C)C)c1` [Compound 13-2-trans, 2-[(3,5-dimethyl-4-(4′-hydroxy-3′-iso-propylbenzyl)phenoxy)methyl]-4-(3-bromophenyl)-2-oxo-2λ^5-[1,3,2]-diox aphosphonane], the inhibition constant Ki stood at 1350 nM in test [1] (SPA data) and 469 nM in test [2] (SPA data).
Consider `Cc1cc(OC[P@]2(=O)OCC[C@@H](c3cccc(F)c3)O2)cc(C)c1Cc1ccc(O)c(C(C)C)c1` [Compound 13-3-trans], for which the Ki in test [1] (SPA data) stood at 2010 nM; in test [2] (SPA data), 2460 nM.
With `Cc1cc(OC[P@]2(=O)OCC[C@@H](c3cccnc3)O2)cc(C)c1Cc1ccc(O)c(C(C)C)c1` [Compound 13-4-trans, 2-[(3,5-dimethyl-4-(4′-hydroxy-3′-iso-propylbenzyl)phenoxy)methyl]-4-(pyrid-3-yl)-2-oxo-2λ^5-[1,3,2]-dioxaphosphonane], the values for the Ki in test [1] (SPA data) and in test [2] (SPA data) were 2130 nM and 1810 nM, respectively.
As for `Cc1cc(OC[P@]2(=O)OCC[C@@H](c3ccncc3)O2)cc(C)c1Cc1ccc(O)c(C(C)C)c1` [Compound 13-5-trans, 2-[(3,5-dimethyl-4-(4′-hydroxy-3′-iso-propylbenzyl)phenoxy)methyl]-4-(pyrid-4-yl)-2-oxo-2λ^5-[1,3,2]-dioxaphosphonane], the Ki in test [1] (SPA data) was determined as 354 nM; in test [2] (SPA data), 281 nM.
For `Cc1cc(OC[P@]2(=O)OCC[C@@H](c3ccc(Cl)cc3)O2)cc(C)c1Cc1ccc(O)c(C(C)C)c1` [Compound 13-6-trans, 2-[(3,5-dimethyl-4-(4′-hydroxy-3′-iso-propylbenzyl)phenoxy)methyl]-4-(4-chlorophenyl)-2-oxo-2λ^5-[1,3,2]-dioxaphosphonane], the Ki in test [1] (SPA data) worked out at 1530 nM; in test [2] (SPA data), 1570 nM.
For the compound `Cc1cc(OC[P@@]2(=O)OCC[C@@H](c3cc(Cl)cc(Cl)c3)O2)cc(C)c1Cc1ccc(O)c(C(C)C)c1` [Compound 13-7-cis], the Ki in test [1] (SPA data) is 49600 nM; in test [2] (SPA data) it was 45100 nM.
In the case of `Cc1cc(OC[P@]2(=O)OCC[C@@H](c3cc(Cl)cc(Cl)c3)O2)cc(C)c1Cc1ccc(O)c(C(C)C)c1` [Compound 13-7-trans], the Ki in test [1] (SPA data) was found to be 1550 nM; in test [2] (SPA data), 3800 nM.
Taken in the same sequence, the figures for `CCOC(=O)[C@@H](NP(=O)(COc1cc(C)c(Cc2ccc(O)c(C(C)C)c2)c(C)c1)N[C@H](C(=O)OCC)C(C)C)C(C)C` [Compound 15-3, di-N-(1-ethoxycarbonyl-2-methyl-propylamino)[3,5-dimethyl-4-(3′-iso-propyl-4′-hydroxybenzyl)phenoxy]methylphosphonamide] were > 2000 nM and > 2000 nM.
Turning to `Cc1cc(CP(=O)(O)O)cc(C)c1Oc1ccc(O)c(C(C)C)c1` [Compound 19-3, [3,5-dimethyl-4-(4′-hydroxy-3′-iso-propylphenoxy)]benzylphosphonic acid], the inhibitory constant (Ki) worked out at 1760 nM in test [1] and 128 nM in test [2] (SPA data).
For `Cc1cc(OCP(=O)(O)O)cc(C)c1Nc1ccc(O)c(C(C)C)c1` [Compound 20, [3,5-dimethyl-4-N-(4′-hydroxy-3-iso-propylphenylamino)phenoxy]methylphosphonic acid], the Ki in test [1] (SPA data) and in test [2] (SPA data) was > 2000 nM throughout.
Consider `CC(C)c1cc(Oc2c(Cl)cc(C(=O)CP(=O)(O)O)cc2Cl)ccc1O` [Compound 21, 2-[3,5-dichloro-4-(4′-hydroxy-3′-iso-propylphenoxy)phenyl]-2-oxoethylphosphonic acid], for which the values for the Ki in test [1] (SPA data) and in test [2] (SPA data) were > 1400 nM and > 180 nM, respectively.
